Assay results taken from US20250186536A1, “SUSTAINED RELEASE PEPTIDE FORMULATIONS” (RHYTHM PHARMACEUTICALS, INC., priority 2017, published 2025).

Experiments:
[1] = Part A single-dose pharmacokinetics of long-acting setmelanotide formulation in healthy obese subjects; format: in vivo, human; settings: for AUC(0-inf) / Cmax / Tmax / half-life: human, plasma; for Tmax: read-out: median tmax
Experimental: (§1) In order to assess the pharmacokinetics of setmelanotide, a two part study was carried out comprising single dose administration (Part A) and multiple dose administration (Part B) with healthy obese subjects.
(§2) Part A was a rising-dose, placebo-controlled study including up to 3 sequential panels. For each panel, 10 normal obese subjects in good health between the ages of 21 and 54 were assigned to randomly-ordered treatments which included 8 active and 2 placebo treatments. Data acquired from Part A were used to determine the dose and dosing regimen for Part B. In Part B, 12 normal healthy obese patients were randomly assigned to receive either 6 active and 6 placebo treatments. Subjects received once weekly subcutaneous injection of the assigned formulation for 4 weeks. Patients in Part B were housed in the clinical unit for the 28 days.
(§3) Setmelanotide was formulated in a sterile liquid polar lipid phase consisting of soy phosphatidylcholine, glycerol dioleate, ethanol and citrate buffer. Without being bound by theory, the setmelanotide formulation behaves in a long-acting fashion, wherein when injected subcutaneously, aqueous body fluid is absorbed by the lipid phase to form a gel like depot consisting of liquid crystals formed in situ.
10 normal obese subjects enrolled for each dose level of Part A; 8 received active drug, and 2 received placebo. There were 3 dose levels used in the single dose phase which were administered according to the sequential, rising dose design. The single setmelanotide doses administered were in sequence: 2.5 mg, 10 mg, and 30 mg. Setmelanotide concentrations were analyzed and safety was assessed before the next higher dose level was started. The drug was administered subcutaneously on the morning of dosing. Blood samples were collected prior to dosing and at 0.5, 1, 2, 3, 4, 6, 8, 10, 12, 16, 24, 30, and 36 hours post-dose (in the clinic), then at approximately 48, 60, 72, 96, 120, 168, 240, and 336 hours post-dose as outpatients. Based on the PK analysis of the first dose, additional blood samples were included for the 30 mg dose at 21 ([…]) and 28 ([…]) days post-dose. The actual times of blood collection were recorded.

[2] = Part B multiple-dose pharmacokinetics (once weekly for 4 weeks) in obese subjects; format: in vivo, human
Experimental: as §1, §2, §3
Twelve (12) obese subjects were enrolled in Part B; 6 received active drug, and 6 were given placebo. Based on results from Part A, setmelanotide 10 mg once weekly was selected as the dose for Part B. Subjects were housed in the clinical facility for the entire 4 weeks of study. Qualified subjects entered the clinical facility the evening before the first dose. Subjects assigned to active treatment received setmelanotide 10 mg subcutaneously in the morning on Day 1. Placebo subjects received the same volume of the placebo injection as the active treatment. Subjects were fasting from the evening before to 4 hours after dosing. Standard lowfat meals were served. Subjects were also dosed on Days 8, 15, and 22 with the treatment given on Day 1.
Blood samples were collected at a time before dosing and at 0.5, 1, 2, 3, 4, 6, 8, 10, 12, 16, 24, 30, 36, 48, 60, 72, 96, 120, 168, 240, and 336 hours during Week 1 and during Week 4. The actual sampling times were recorded. In addition, blood samples were collected at a time just before dosing for trough setmelanotide concentrations for evaluating the attainment of steady state.

[3] = Stability analysis of setmelanotide formulations (degradation by HPLC); format: physicochemical
Experimental: Components of exemplary setmelanotide formulations were varied in order to assess their impact on the stability of setmelanotide over time. In a first study, setmelanotide formulations were prepared as described in Example 2 with 30 mg/mL setmelanotide using different forms of GDO: 1) GDO of commercial purity; 2) GDO of commercial purity, which has been further purified to remove fatty acid compounds; and 3) synthetic GDO. The formulations were stored in 1 mL glass syringes equipped with staked stainless steel […] and rubber plungers at 40° C. for up to three months.
The effect of EDTA concentration on setmelanotide degradation was also investigated in a second study. Syringes containing setmelanotide formulations with higher EDTA along with GDO of varying sources were prepared, and setmelanotide degradation was quantified by HPLC over time. The results of this study are depicted in FIG. 6, and indicate that higher concentrations of EDTA have a small effect on setmelanotide stability in the presence of either GDO of commercial purity or synthetic GDO.
In a third study, the effect of setmelanotide and EDTA concentrations were explored in the presence of synthetic GDO.

[4] = 10 mg SC once weekly for 4 weeks

CC(=O)N[C@@H](CCCNC(=N)N)C(=O)N[C@H]1CSSC[C@@H](C(N)=O)NC(=O)[C@H](Cc2c[nH]c3ccccc23)NC(=O)[C@H](CCCNC(=N)N)NC(=O)[C@@H](Cc2ccccc2)NC(=O)[C@H](Cc2c[nH]cn2)NC(=O)[C@@H](C)NC1=O [setmelanotide]
dose proportionality of AUC∞ ([1]; 2.5 mg dose): less than proportional | dose proportionality of AUC ([1]; 10 mg and 30 mg doses): proportional | dose proportionality of Cmax ([1]; 2.5 to 30 mg dose range): roughly proportional | AUC(0-inf) ([1]; single SC dose 2.5 mg): 92.9 ng·h/mL | Cmax ([1]; single SC dose 2.5 mg): 2.92 ng/mL | Tmax ([1]; single SC dose 2.5 mg): 3.5 h | AUC(0-inf) ([1]; single SC dose 10 mg): 1140 ng·h/mL | Cmax ([1]; single SC dose 10 mg): 11.5 ng/mL | half-life ([1]; single SC dose 10 mg): 123 h | Tmax ([1]; single SC dose 10 mg): 4 h | AUC(0-inf) ([1]; single SC dose 30 mg): 3470 ng·h/mL | Cmax ([1]; single SC dose 30 mg): 34.1 ng/mL | half-life ([1]; single SC dose 30 mg): 159 h | Tmax ([1]; single SC dose 30 mg): 6 h | time by which all values were below quantifiable ([1]; single SC dose 2.5 mg): ≤ 96 h | time past which profile was defined ([1]; single SC dose 10 mg): > 168 h | time past which profile was defined ([1]; single SC dose 30 mg): > 168 h | earliest plasma sample time in which setmelanotide appeared ([1]; single SC dose, generally): 0.5 h | time measurable in plasma after dosing ([1]; single SC dose, generally): ≥ 2 weeks | time to maximum concentrations after dosing ([1]; single SC dose, generally over the three dose levels): about 4 hours | early burst effect or dose dumping ([1]; single dose administration): no early burst effect or dose dumping | lag-time of absorption ([1]; single dose administration): little to no lag-time | accumulation index [2, 4]: 1.46 | lag in absorption [2, 4]: no lag in absorption | attainment of steady state (trough concentrations, visual inspection) ([2]; 10 mg SC once weekly, 4 weekly doses): attained during Week 4 | Cmax ([2]; human, plasma, 10 mg SC once weekly for 4 weeks): 11.4 ng/mL | level at 168 h ([2]; human, plasma, 10 mg SC once weekly for 4 weeks, end of 1-week dosing interval, read-out: mean concentration at 168 hours): 2.92 ng/mL | Tmax ([2]; human, plasma, 10 mg SC once weekly for 4 weeks, read-out: median tmax): 4 h | setmelanotide degradation ([3]; 15 mg/mL formulations compared with 30 mg/mL formulations, synthetic GDO): higher levels of degradation | setmelanotide degradation ([3]; 30 mg/mL formulation prepared with synthetic GDO vs GDO of commercial purity or further purified, 40° C. up to three months, HPLC): lower amount | effect of higher EDTA concentration on setmelanotide stability ([3]; GDO of commercial purity or synthetic GDO, HPLC over time): small effect | effect of increasing EDTA concentration on degradation ([3]; as setmelanotide concentration decreases, synthetic GDO): greater effect
